Where two headings read alike, the source gives them in different places.
Columns and labels:
Assay in all cases: KiNativ, MOLM13 live cells
Assay type in all cases: cell-based
[1] = target: PRPK (Homo sapiens, UniProt Q96S44); settings: MOLM-13; 100 nM, 2 hours; ATP Loop; read-out: Inhibition vs DMSO
Experimental: (§1) Samples were analyzed by KiNativ in situ kinase profiling by ActivX Biosciences.

[2] = target: CHK2 (Homo sapiens, UniProt O96017); settings: MOLM-13, 2 h, 100 nM
Experimental: as §1

[3] = target: AKT1 (Homo sapiens, UniProt P31749); settings: MOLM-13; 100 nM, 2 hours; ATP Loop; read-out: Inhibition vs DMSO
Experimental: as §1

[4] = target: PIP4K2A (Homo sapiens, UniProt P48426); settings: MOLM-13; 100 nM, 2 hours; ATP; read-out: Inhibition vs DMSO
Experimental: as §1

[5] = target: FER (Homo sapiens, UniProt P16591); settings: MOLM-13, 2 h, 100 nM
Experimental: as §1

[6] = target: PIP4K2B (Homo sapiens, UniProt P78356); settings: MOLM-13; 100 nM, 2 hours; ATP; read-out: Inhibition vs DMSO
Experimental: as §1

[7] = target: T1, ZAP70 (Homo sapiens, UniProt P43403); settings: MOLM-13; 100 nM, 2 hours; Activation Loop; read-out: Inhibition vs DMSO
T1 sequence (P43403 1-619): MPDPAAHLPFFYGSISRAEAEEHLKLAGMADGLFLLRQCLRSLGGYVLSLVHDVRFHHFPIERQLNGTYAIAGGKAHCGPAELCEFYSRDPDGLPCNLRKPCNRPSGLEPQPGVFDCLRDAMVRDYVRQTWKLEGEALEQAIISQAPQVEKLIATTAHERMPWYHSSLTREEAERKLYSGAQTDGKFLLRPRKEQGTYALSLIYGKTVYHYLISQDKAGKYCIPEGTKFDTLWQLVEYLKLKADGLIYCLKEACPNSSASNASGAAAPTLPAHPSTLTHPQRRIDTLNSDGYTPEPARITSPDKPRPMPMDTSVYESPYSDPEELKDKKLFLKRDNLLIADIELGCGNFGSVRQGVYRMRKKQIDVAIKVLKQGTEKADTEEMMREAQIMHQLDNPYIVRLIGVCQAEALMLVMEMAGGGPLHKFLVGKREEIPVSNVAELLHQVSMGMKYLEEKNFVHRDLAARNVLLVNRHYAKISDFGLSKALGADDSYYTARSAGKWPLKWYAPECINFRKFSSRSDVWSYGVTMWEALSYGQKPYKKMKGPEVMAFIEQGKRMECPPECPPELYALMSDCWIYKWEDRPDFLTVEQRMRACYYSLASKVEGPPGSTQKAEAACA
Experimental: as §1

[8] = target: ZAK (Homo sapiens, UniProt Q9NYL2); settings: MOLM-13; 100 nM, 2 hours; Lys1; read-out: Inhibition vs DMSO
Experimental: as §1

[9] = target: T2, MAP2K3 (Homo sapiens, UniProt P46734); settings: MOLM-13, 2 h, 100 nM
T2 sequence (P46734 1-347): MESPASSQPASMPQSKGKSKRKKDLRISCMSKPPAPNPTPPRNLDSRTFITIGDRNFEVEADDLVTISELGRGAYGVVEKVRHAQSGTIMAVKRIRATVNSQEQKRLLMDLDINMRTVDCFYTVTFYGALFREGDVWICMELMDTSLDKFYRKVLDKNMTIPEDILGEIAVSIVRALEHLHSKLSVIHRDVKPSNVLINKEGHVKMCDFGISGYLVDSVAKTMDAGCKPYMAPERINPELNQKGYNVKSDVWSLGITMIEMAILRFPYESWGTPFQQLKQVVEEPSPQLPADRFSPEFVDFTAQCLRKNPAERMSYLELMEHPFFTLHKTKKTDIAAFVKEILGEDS
Experimental: as §1

[10] = target: T3, MAP2K4 (Homo sapiens, UniProt P45985); settings: MOLM-13, 2 h, 100 nM
T3 sequence (P45985 1-399): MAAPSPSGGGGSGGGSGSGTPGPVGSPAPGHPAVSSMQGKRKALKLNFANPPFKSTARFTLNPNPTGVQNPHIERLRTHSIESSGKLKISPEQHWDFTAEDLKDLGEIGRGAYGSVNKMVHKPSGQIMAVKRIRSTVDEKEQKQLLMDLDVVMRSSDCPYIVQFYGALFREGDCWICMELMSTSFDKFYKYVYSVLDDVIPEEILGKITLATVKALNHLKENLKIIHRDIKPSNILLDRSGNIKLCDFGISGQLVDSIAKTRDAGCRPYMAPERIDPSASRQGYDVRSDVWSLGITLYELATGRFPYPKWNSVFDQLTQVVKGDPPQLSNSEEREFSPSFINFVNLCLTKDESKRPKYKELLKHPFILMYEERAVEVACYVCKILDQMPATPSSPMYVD
Experimental: as §1

[11] = target: T4, JAK1 domain2 (Homo sapiens, UniProt P23458); settings: 100 nM, 2 hours
T4 construct: JAK1 domain2
Experimental: as §1

[12] = target: Erk5 (Homo sapiens, UniProt Q13164); settings: MOLM-13; 100 nM, 2 hours; Lys2; read-out: Inhibition vs DMSO
Experimental: as §1

[13] = target: T5, RSK2 domain2 (Homo sapiens, UniProt P51812); settings: MOLM-13; 100 nM, 2 hours; Lys2; read-out: Inhibition vs DMSO
T5 construct: RSK2 domain2
Experimental: as §1

[14] = target: KSR1 (Homo sapiens, UniProt Q8IVT5); settings: MOLM-13; 100 nM, 2 hours; Activation Loop; read-out: Inhibition vs DMSO
Experimental: as §1

[15] = target: T6, MSK2 domain1 (Homo sapiens, UniProt O75676); settings: MOLM-13, 2 h, 100 nM
T6 construct: MSK2 domain1
Experimental: as §1

[16] = target: p38b (Homo sapiens, UniProt Q15759); settings: MOLM-13; 100 nM, 2 hours; Other; read-out: Inhibition vs DMSO
Experimental: as §1

[17] = target: PYK2 (Homo sapiens, UniProt Q14289); settings: MOLM-13; 100 nM, 2 hours; Activation Loop; read-out: Inhibition vs DMSO
Experimental: as §1

[18] = target: CCRK (Homo sapiens, UniProt Q8IZL9); settings: MOLM-13; 100 nM, 2 hours; Lys2; read-out: Inhibition vs DMSO
Experimental: as §1

[19] = target: BRAF (Homo sapiens, UniProt P15056); settings: MOLM-13; 100 nM, 2 hours; Lys2; read-out: Inhibition vs DMSO
Experimental: as §1

[20] = Lys1, read-out: Inhibition vs DMSO
[21] = Lys2, read-out: Inhibition vs DMSO
[22] = Activation Loop, read-out: Inhibition vs DMSO

T6 sequence (O75676 whole entry, the tested form may be a part): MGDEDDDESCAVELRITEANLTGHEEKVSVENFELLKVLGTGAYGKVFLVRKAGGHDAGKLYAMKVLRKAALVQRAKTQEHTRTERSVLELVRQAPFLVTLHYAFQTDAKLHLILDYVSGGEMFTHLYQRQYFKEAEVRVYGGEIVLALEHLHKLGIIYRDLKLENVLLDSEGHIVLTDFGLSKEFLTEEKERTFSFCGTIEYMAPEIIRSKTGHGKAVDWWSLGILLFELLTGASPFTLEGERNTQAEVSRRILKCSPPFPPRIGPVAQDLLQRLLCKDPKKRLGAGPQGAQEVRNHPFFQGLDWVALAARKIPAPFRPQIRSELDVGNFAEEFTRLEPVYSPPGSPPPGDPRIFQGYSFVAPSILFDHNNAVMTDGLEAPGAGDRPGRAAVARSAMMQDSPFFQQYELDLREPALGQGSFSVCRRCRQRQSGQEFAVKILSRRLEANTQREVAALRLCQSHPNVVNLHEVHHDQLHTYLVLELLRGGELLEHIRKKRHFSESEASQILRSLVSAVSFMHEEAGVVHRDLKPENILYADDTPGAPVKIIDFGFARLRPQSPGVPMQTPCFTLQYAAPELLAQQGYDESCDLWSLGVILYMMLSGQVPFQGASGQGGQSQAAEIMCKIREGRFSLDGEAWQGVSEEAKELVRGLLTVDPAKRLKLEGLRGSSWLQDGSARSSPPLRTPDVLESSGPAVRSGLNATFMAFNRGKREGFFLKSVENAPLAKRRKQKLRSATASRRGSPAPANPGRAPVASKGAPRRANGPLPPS
T4 sequence (P23458 whole entry, the tested form may be a part): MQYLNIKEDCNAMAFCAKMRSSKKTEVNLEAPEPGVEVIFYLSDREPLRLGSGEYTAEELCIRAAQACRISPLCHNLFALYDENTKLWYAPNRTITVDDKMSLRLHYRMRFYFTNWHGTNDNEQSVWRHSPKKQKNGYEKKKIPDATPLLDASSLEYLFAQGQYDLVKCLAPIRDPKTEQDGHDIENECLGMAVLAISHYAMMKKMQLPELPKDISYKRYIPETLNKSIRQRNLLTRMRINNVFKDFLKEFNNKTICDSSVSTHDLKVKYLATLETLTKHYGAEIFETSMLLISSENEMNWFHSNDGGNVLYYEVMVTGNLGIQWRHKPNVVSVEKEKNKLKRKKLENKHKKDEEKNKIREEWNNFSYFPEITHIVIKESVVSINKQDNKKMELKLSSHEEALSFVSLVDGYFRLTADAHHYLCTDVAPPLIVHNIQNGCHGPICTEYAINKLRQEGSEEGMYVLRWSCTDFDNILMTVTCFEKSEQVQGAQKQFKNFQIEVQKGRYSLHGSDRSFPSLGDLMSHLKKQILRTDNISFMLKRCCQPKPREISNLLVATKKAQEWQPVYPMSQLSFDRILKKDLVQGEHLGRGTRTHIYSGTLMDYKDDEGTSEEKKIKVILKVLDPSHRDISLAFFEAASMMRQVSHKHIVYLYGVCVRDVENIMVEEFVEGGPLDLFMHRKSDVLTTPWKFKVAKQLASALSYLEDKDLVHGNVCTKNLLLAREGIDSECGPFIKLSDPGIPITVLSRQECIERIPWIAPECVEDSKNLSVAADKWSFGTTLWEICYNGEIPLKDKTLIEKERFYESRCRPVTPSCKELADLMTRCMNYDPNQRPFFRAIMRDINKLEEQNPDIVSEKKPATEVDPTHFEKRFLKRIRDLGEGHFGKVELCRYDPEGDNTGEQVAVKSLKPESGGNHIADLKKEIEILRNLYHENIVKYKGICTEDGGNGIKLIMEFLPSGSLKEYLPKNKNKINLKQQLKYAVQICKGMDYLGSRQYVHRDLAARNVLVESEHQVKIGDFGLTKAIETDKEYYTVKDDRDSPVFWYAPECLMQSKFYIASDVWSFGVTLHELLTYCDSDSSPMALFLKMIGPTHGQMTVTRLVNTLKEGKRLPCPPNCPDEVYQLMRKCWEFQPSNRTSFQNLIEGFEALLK
Chain of CHK2 (O96017 whole entry): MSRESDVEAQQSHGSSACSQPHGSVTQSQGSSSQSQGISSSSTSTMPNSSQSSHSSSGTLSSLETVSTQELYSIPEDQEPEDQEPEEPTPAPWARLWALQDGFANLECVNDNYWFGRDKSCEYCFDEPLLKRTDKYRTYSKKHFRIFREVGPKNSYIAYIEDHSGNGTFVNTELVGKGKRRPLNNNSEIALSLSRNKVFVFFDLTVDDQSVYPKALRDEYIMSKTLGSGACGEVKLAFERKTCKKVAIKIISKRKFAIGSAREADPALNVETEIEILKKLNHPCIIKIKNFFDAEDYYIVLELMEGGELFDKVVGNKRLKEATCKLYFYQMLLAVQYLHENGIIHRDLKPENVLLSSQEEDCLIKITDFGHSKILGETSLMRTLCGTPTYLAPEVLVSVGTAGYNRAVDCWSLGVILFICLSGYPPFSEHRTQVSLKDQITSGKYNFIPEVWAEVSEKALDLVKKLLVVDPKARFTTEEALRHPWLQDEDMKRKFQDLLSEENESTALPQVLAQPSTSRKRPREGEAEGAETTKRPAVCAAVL
Chain of FER (P16591 whole entry): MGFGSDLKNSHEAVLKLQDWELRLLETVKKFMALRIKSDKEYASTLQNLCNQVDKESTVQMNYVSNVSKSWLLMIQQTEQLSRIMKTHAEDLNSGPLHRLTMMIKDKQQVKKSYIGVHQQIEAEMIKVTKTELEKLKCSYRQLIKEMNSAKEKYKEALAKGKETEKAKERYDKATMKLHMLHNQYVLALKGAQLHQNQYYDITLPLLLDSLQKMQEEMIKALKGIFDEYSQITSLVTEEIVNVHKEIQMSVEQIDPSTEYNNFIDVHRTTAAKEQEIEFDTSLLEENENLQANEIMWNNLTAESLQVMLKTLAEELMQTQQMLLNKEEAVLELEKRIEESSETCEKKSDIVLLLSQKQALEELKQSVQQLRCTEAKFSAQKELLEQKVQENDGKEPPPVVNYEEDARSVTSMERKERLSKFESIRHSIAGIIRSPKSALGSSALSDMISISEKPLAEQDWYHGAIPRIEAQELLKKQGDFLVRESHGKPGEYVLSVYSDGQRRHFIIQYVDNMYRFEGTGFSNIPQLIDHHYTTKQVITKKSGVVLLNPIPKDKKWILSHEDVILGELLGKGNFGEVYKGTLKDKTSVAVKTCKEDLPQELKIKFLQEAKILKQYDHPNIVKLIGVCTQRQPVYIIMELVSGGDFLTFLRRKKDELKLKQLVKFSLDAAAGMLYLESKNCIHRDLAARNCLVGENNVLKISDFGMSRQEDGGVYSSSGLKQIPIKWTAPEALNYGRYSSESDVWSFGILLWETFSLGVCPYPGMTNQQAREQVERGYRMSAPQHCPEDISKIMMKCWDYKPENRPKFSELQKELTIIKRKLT
Chain of ZAK (Q9NYL2 whole entry): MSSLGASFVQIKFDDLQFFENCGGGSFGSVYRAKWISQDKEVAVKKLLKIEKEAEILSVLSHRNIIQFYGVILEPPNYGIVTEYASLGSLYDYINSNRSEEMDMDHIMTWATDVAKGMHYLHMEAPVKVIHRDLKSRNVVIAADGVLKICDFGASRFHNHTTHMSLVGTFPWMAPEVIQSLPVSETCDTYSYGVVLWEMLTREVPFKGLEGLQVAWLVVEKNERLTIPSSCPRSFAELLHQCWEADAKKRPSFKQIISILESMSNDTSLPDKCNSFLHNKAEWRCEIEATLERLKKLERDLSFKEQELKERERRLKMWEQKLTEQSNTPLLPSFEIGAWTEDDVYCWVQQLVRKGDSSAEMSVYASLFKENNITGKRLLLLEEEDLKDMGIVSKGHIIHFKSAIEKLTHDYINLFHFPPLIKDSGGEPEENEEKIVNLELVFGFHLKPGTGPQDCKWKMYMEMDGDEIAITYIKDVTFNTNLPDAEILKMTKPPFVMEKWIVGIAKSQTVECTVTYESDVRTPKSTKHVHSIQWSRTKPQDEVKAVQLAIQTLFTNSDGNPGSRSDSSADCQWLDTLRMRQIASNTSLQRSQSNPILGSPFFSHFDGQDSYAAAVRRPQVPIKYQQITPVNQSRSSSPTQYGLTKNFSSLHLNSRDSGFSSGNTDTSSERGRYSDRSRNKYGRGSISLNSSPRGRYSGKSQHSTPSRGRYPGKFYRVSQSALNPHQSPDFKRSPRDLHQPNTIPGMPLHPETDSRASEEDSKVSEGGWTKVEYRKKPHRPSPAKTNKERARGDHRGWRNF
Chain of KSR1 (Q8IVT5 whole entry): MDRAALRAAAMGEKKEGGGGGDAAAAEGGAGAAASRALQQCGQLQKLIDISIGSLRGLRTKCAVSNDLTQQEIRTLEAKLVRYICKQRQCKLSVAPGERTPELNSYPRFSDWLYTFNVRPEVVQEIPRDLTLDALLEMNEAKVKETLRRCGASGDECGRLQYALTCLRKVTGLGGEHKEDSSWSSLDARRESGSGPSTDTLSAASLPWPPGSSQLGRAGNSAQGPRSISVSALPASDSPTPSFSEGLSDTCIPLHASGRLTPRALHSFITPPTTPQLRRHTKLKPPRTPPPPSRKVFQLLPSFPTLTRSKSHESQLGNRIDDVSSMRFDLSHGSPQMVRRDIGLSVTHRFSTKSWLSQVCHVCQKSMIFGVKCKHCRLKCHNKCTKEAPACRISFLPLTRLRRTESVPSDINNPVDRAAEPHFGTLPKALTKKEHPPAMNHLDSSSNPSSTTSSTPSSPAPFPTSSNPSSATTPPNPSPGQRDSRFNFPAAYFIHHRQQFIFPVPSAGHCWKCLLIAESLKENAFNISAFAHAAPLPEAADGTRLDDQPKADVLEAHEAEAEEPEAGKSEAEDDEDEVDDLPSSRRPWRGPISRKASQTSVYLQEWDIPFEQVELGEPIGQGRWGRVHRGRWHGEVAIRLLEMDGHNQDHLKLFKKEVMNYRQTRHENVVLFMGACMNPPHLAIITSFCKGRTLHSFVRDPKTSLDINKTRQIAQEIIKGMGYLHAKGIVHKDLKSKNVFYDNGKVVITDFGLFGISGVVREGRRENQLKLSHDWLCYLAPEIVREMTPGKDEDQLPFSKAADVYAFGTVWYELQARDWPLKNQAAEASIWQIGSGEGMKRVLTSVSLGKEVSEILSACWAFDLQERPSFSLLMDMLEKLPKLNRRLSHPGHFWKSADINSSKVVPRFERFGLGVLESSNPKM

## CN1CCN(Cc2ccc(Nc3ncc(Cl)c(Nc4ccccc4S(=O)(=O)N(C)C)n3)cc2)CC1 [TP-0903]
[1]
  inhibition at 0.1 µM: 29.4%
[2]; [20]
  inhibition at 0.1 µM: 11.3%
[2]; [21]
  inhibition at 0.1 µM: -23.4%
[3]
  inhibition at 0.1 µM: -54.3%
[4]
  inhibition at 0.1 µM: -28.1%
[5]; [22]
  inhibition at 0.1 µM: 43.4%
[5]; [20]
  inhibition at 0.1 µM: 19.2%
[6]
  inhibition at 0.1 µM: -16.2%
[7]
  inhibition at 0.1 µM: 26.3%
[8]
  inhibition at 0.1 µM: 7.6%
[9]; [22]
  inhibition at 0.1 µM: -10.9%
[9]; [20]
  inhibition at 0.1 µM: 3.4%
[9]; [21]
  inhibition at 0.1 µM: 8.2%
[10]; [22]
  inhibition at 0.1 µM: 4.3%
[10]; [20]
  inhibition at 0.1 µM: -38.6%
[10]; [21]
  inhibition at 0.1 µM: 4.1%
[11]; Activation Loop
  Inhibition vs DMSO: -23.7%
[11]; Lys1
  Inhibition vs DMSO: -597.8%
[12]
  inhibition at 0.1 µM: 84.9%
[13]
  inhibition at 0.1 µM: -47.6%
[14]
  inhibition at 0.1 µM: -11%
[15]; [20]
  inhibition at 0.1 µM: 13.3%
[15]; [21]
  inhibition at 0.1 µM: 26.8%
[16]
  inhibition at 0.1 µM: -5%
[17]
  inhibition at 0.1 µM: 21.6%
[18]
  inhibition at 0.1 µM: 68.3%
[19]
  inhibition at 0.1 µM: 16.8%

Reference: article PMC7714403 (JCI Insight, 2020)
